Values belong to the compound of their own block, whether it stands above or below them.
Legend:
prostatic - PC-3 = experiment: Antiproliferative assay (MTT) PC-3; conditions: for IC50: read-out: Antiproliferative activity IC50 ± SEM (µM) PC-3, PC-3, MTT
[1] = Cell viability assay (MTT), normal cells; format: cell-based; conditions: human, MCF-10A normal mammary gland epithelial cells, four-day incubation
Method: The impact of novel compounds 10a-o and 13a-e on cell viability was examined using the MCF-10A (human mammary gland epithelial) normal cell line. The MTT test was employed to assess the cell viability of the novel compounds after a four-day incubation with MCF-10A cells ([El-Sherief et al., 2019]; [Ramadan et al., 2020]).
The effects of compounds 10a-o and 13a-e on cell viability were assessed using the human mammary gland epithelial normal cell line (MCF-10A). The MTT assay assessed the cell viability of compounds 10a-o and 13a-e following a four-day incubation with MCF-10A cells ([El-Sherief et al., 2019]; [Ramadan et al., 2020]). Check Supplementary Appendix A for additional information.
4.2. Biological evaluation
4.2.1 Cell Viability assay (MTT assay)
MTT assay was performed to investigate the effect of the synthesized compounds on mammary epithelial cells (MCF-10A). The cells were propagated in medium consisting of Ham's F-12 medium/ Dulbecco's modified Eagle's medium (DMEM) (1:1) supplemented with 10% foetal calf serum, 2 mM glutamine, insulin (10 μg/mL), hydrocortisone (500 ng/mL) and epidermal growth factor (20 ng/mL). Trypsin ethylenediamine tetra acetic acid (EDTA) was used to passage the cells after every 2-3 days. 96-well flat-bottomed cell culture plates were used to seed the cells at a density of 10^4 cells mL-1. The medium was aspirated from all the wells of culture plates after 24 h followed by the addition of synthesized compounds (in 200 μL medium to yield a final concentration of 0.1% (v/v) dimethyl sulfoxide) into individual wells of the plates.
Four wells were designated to a single compound. The plates were allowed to incubate at 37°C for 96 h. Afterwards, the medium was aspirated and 3-[4,5-dimethylthiazol-2-yl]-2,5-diphenyltetrazolium bromide (MTT) (0.4 mg/mL) in medium was added to each well and subsequently incubated for 3 h. The medium was aspirated and 150 μL dimethyl sulfoxide (DMSO) was added to each well. The plates were vortexed followed by the measurement of absorbance at 540 nm on a microplate reader. The results were presented as inhibition (%) of proliferation in contrast to controls comprising 0.1%

colon - HCT-116 = experiment: Antiproliferative assay (MTT) HCT-116; conditions: for IC50: read-out: Antiproliferative activity IC50 ± SEM (µM) HCT-116, HCT-116, MTT
tubulin = experiment: Tubulin polymerization inhibition assay (Cytoskeleton kit); conditions: for Tub %inh: 30 min, YB-EGY run; for Tub K.Activity: EC = 120, YB-EGY run;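 for all read-outs here: Cell-free tubulin polymerization read by fluorescent reporter enhancement over a 30 min reaction, with the compound-free kit control taken as 100% activity and inhibition relative to it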
pancreatic - MDAMB-231 = experiment: Antiproliferative assay (MTT) MDAMB-231; conditions: read-out: Antiproliferative activity IC50 ± SEM (µM) MDAMB-231; MDAMB-231, MTT
- MDAMB-231 = experiment: Antiproliferative assay (MTT) MDAMB-231
breast - MCF-7 = experiment: Antiproliferative assay (MTT) MCF-7; conditions: for IC50: read-out: Antiproliferative activity IC50 ± SEM (µM) MCF-7, MCF-7, MTT
[2] = system: four human cancer cell lines (HCT-116, PC-3, MCF-7, MDAMB-231); experiment: Antiproliferative assay, mean of four cell lines (GI50); conditions: for IC50: Homo sapiens, read-out: GI50 (average IC50)

IC50 (prostatic - PC-3): 61 ± 3.5 µM
IC50 (colon - HCT-116): 29 ± 1.9 µM
IC50 (tubulin; read-out: Tubulin inhibition IC50 ± SEM, triplicate for each tested concentration): 7.95 ± 0.24 µM
IC50 (pancreatic - MDAMB-231): 15 ± 1.3 µM
IC50 (breast - MCF-7): 24 ± 1.7 µM
Reduced potency compared to doxorubicin (GI50) ([2]; GI50 ratio): at least 2.5 fold
Reduced potency compared to sorafenib (GI50) ([2]; GI50 ratio): ≥ 1.5 fold
IC50 [2]: 32 µM
Compound: Cc1nc(SCC(=O)Nc2nc(-c3ccc(Cl)cc3)cs2)sc1C(=O)/C=C/c1ccc(F)cc1 [Compound 10h, (E)-N-(4-(4-chlorophenyl)thiazol-2-yl)-2-((5-(3-(4-fluorophenyl)acryloyl)-4-methylthiazol-2-yl)thio)acetamide]
Average of Relative viability of cells (%) (prostatic - PC-3; PC-3, 1.56 µM): 100%
Average of Relative viability of cells (%) (prostatic - PC-3; PC-3, 3.125 µM): 100%
Average of Relative viability of cells (%) (prostatic - PC-3; PC-3, 6.25 µM): 100%
Average of Relative viability of cells (%) (prostatic - PC-3; PC-3, 12.5 µM): 93.5%
Average of Relative viability of cells (%) (prostatic - PC-3; PC-3, 25 µM): 72.4%
Average of Relative viability of cells (%) (prostatic - PC-3; PC-3, 50 µM): 55.8%
Average of Relative viability of cells (%) (prostatic - PC-3; PC-3, 100 µM): 36.5%
viability at 96 h, 50 µM [1]: 85%
Average of Relative viability of cells (%) (colon - HCT-116; HCT-116, 1.56 µM): 100%
Average of Relative viability of cells (%) (colon - HCT-116; HCT-116, 3.125 µM): 97.6%
Average of Relative viability of cells (%) (colon - HCT-116; HCT-116, 6.25 µM): 79.5%
Average of Relative viability of cells (%) (colon - HCT-116; HCT-116, 12.5 µM): 69.3%
Average of Relative viability of cells (%) (colon - HCT-116; HCT-116, 25 µM): 52.8%
Average of Relative viability of cells (%) (colon - HCT-116; HCT-116, 50 µM): 39.4%
Average of Relative viability of cells (%) (colon - HCT-116; HCT-116, 100 µM): 20.2%
Tub %inh (tubulin; conc 0.1 (unit not given)): 9.85%
Tub K.Activity (tubulin; conc 0.1 (unit not given)): 108.18
Tub %inh (tubulin; conc 1 (unit not given)): 26.6%
Tub K.Activity (tubulin; conc 1 (unit not given)): 88.132
Tub %inh (tubulin; conc 10 (unit not given)): 44.8%
Tub K.Activity (tubulin; conc 10 (unit not given)): 66.269
Tub %inh (tubulin; conc 50 (unit not given)): 65.5%
Tub K.Activity (tubulin; conc 50 (unit not given)): 41.405
Tub %inh (tubulin; conc 100 (unit not given)): 84.5%
Tub K.Activity (tubulin; conc 100 (unit not given)): 18.607
Average of Relative viability of cells (%) (- MDAMB-231; MDAMB-231, 1.56 µM): 100%
Average of Relative viability of cells (%) (- MDAMB-231; MDAMB-231, 3.125 µM): 85.7%
Average of Relative viability of cells (%) (- MDAMB-231; MDAMB-231, 6.25 µM): 68.5%
Average of Relative viability of cells (%) (- MDAMB-231; MDAMB-231, 12.5 µM): 47.4%
Average of Relative viability of cells (%) (- MDAMB-231; MDAMB-231, 25 µM): 37.1%
Average of Relative viability of cells (%) (- MDAMB-231; MDAMB-231, 50 µM): 26.7%
Average of Relative viability of cells (%) (- MDAMB-231; MDAMB-231, 100 µM): 21.6%
Average of Relative viability of cells (%) (breast - MCF-7; MCF-7, 1.56 µM): 100%
Average of Relative viability of cells (%) (breast - MCF-7; MCF-7, 3.125 µM): 94.8%
Average of Relative viability of cells (%) (breast - MCF-7; MCF-7, 6.25 µM): 76.5%
Average of Relative viability of cells (%) (breast - MCF-7; MCF-7, 12.5 µM): 53.9%
Average of Relative viability of cells (%) (breast - MCF-7; MCF-7, 25 µM): 50.2%
Average of Relative viability of cells (%) (breast - MCF-7; MCF-7, 50 µM): 37.1%
Average of Relative viability of cells (%) (breast - MCF-7; MCF-7, 100 µM): 23.6%

IC50 (prostatic - PC-3): 9 ± 0.6 µM
IC50 (colon - HCT-116): 5 ± 0.3 µM
IC50 (pancreatic - MDAMB-231): 3 ± 0.1 µM
IC50 (breast - MCF-7): 4 ± 0.2 µM
IC50 [2]: 5 µM
Compound: COc1cccc2c1C(=O)c1c(O)c3c(c(O)c1C2=O)C[C@@](O)(C(=O)CO)C[C@@H]3O[C@H]1C[C@H](N)[C@H](O)[C@H](C)O1 [Doxorubicin, reference compound]
